Reference: patent US11202792B2, “CD99 inhibitors and their uses” (GEORGETOWN UNIVERSITY, priority 2016, dated 2021)
Read-outs that look alike come from different tables or passages of the source.

Columns and labels:
ES cell lines = test: Cell viability IC50 panel (WST-1 or MTT), ES cell lines; type: cell-based, human; settings: for IC50: Homo sapiens, 48 h, read-out: average IC50 concentration for ES cell lines; for IC50 concentrations, ES cell lines: all ES cell lines except A673; for increased sensitivity of ES compared to non-ES cell lines: ratio of average IC50 non-ES vs ES
U-2-OS OS cells = test: Cell viability IC50, U-2-OS; type: cell-based; settings: Homo sapiens, U2OS
Method: (§1) The plate was installed into the RTCA system, and the electrical impedance (represented as cell index) was measured every 10 min.
(§2) To investigate the relationship between the level of CD99 expression and drug sensitivity, the endogenous expression of CD99 was determined in a panel of 9 ES and 13 non-ES cell lines. The recombinant purified CD99-ECD protein was used to generate standard curves for immunoquantification of CD99 expression by immunoblotting (FIGS. 6B and 6C).

[1] = tested on: RH4 rhabdomyosarcoma cells; test: Cell viability IC50, RH4; type: cell-based; settings: Homo sapiens, RH4 (RM)
Method: as §1, §2

non-ES cell lines = test: Cell viability IC50 panel, non-ES cell lines; type: cell-based; settings: 48 h; highest concentration tested (10 or 30 μmol/L) used for resistant lines; unit not printed with values
Method: as §1
Therefore, two leukemia cell lines, MOLT-4 and Jurkat, were included as positive controls in this experiment.

TC-71 ES cells = test: Cell viability IC50, TC-71; type: cell-based, human; settings: for IC50: Homo sapiens; for Fold changes in IC50: TC-71 parental cells, mean ± SD
[2] = tested on: RD18 rhabdomyosarcoma cells; test: Cell viability IC50, RD18; type: cell-based; settings: Homo sapiens, RD18 (RM)
Method: as §1, §2

6647 ES cells = test: Cell viability IC50, 6647; type: cell-based; settings: Homo sapiens
Method: as §1, §2

IOR/OS14 OS cells = test: Cell viability IC50, IOR/OS14; type: cell-based; settings: Homo sapiens
Method: as §1, §2

RDES ES cells = test: Cell viability IC50, RDES; type: cell-based; settings: Homo sapiens, RD-ES
6647 and TC-71 ES cells = test: Transwell cell migration assay; type: cell-based, human; settings: 24 h pre-treatment; cladribine 1 or 3 μmol/L, clofarabine 0.3 or 0.5 μmol/L
Method: Immunoblot analysis was performed on total cell lysates for ROCK2 and GAPDH expression. In FIG. 8B, TC-71 control and TC-CD99-shRNA #2 cells were treated with either drug at indicated concentrations for 1, 3 and 6 h. Immunoblot analysis was performed on total cell lysates for ROCK2 and GAPDH expression. In FIG. 8C, cell migration experiments were performed using Boyden chamber transwell migration assay with 10% serum serving as the chemoattractant in the lower chamber. […] The number of migrated cells was then quantified by counting the cells in the bottom chamber under the microscope. Asterisks indicate statistically significant differences between treatments (*p<0.05; vs. control using a Student's unpaired t test).
Motility assay was done using Trans-well chambers (Costar; Corning (Corning, N.Y.)) according to manufacturer's instructions.

[3] = biological target: T1, CD99 homodimers in STA-ET-7.2 ES cells (Homo sapiens, UniProt P14209); test: Chemical cross-linking with BS3, CD99 homodimer formation; type: cell-based; settings: 5 μmol/L, 1 h, then 1 mmol/L BS3; STA-ET-7.2 cells
T1 construct: STA-ET-7.2 ES cells, which express the highest level of CD99 protein among all ES cell lines; endogenous in cells; host or cells: STA-ET-7.2
Method: The cells were rinsed 3 times with ice-cold PBS, and treated with 1 mmol/L BS^3 (Thermo Scientific) in PBS for 10 min at 37° C. according to manufacturer's instructions. […] Protein samples were then prepared by lysing the cross-linked cells in a lysis buffer as described above.
To address this, in a chemical cross-linking assay, STA-ET-7.2 ES cells were preincubated with the inhibitors for 1 h at a final concentration of 5 μmol/L followed by the addition of 1 mmol/L BS^3, a membrane-impermeable chemical cross-linking agent.

[4] = biological target: T2, recombinant human full-length CD99 (Homo sapiens, UniProt P14209); test: SPR binding kinetics, recombinant human full-length CD99 (Biacore T200); settings: full-length CD99 produced in HEK293 cells, immobilized by amine coupling
T2 construct: Purified recombinant human full-length CD99 produced in HEK293 cells was purchased from Origene; purchased Origene #TP304056; host or cells: HEK293
T2 sequence (P14209 23-185): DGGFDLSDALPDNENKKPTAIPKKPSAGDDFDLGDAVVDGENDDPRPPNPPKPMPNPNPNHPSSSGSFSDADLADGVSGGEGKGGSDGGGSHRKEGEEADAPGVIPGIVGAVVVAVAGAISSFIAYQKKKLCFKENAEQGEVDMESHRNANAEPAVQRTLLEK
Method: The initial binding screening of the NCI/DTP chemical libraries was performed on a Biacore T200 instrument at room temperature using a neutravidin-coated CM5 chip (GE Healthcare Bio-Sciences) coupled with biotinylated CD99-ECD on one flow cell at levels of ˜3,000 response units (RU). A negative control protein, Ly6k was immobilized on another flow cell of the same chip (˜11,000 RU), and the first flow cell was left empty for reference subtraction due to nonspecific binding. Analytes were diluted in HBS—P buffer [10 mmol/L HEPES, pH 7.4, 150 mmol/L NaCl, % 0.05 (v/v) surfactant P20], and were injected individually over all flow cells. The running buffer contained appropriate concentrations of DMSO in HBS—P to match the DMSO level of the samples. Kinetic studies for antibody- or compound-CD99 interactions were performed in a Biacore T200 instrument. Purified recombinant human full-length CD99 produced in HEK293 cells was purchased from Origene (Rockville, Md.) (#TP304056). The recombinant human full-length CD99 was immobilized on a CM5 sensor chip by the amine-coupling method in sodium acetate buffer, pH 4.0 (˜10,000 RU). The first flow cell was left empty for background signal subtraction. Kinetic characterization of the interactions was done by injecting increasing concentrations of analytes as indicated over CD99-captured and control surface. KD (equilibrium dissociation constant) values were obtained using BiaEvaluation software (version 1.0) (Biacore) (GE Healthcare). All kinetic experiments were conducted in HBS—P buffer, which contained 1% (v/v) DMSO in case of compounds.

SK-N-MC ES cells = test: Cell viability IC50, SK-N-MC; type: cell-based; settings: Homo sapiens
Method: as §1, §2

TC-71 xenografts = test: Orthotopic TC-71 xenograft, i.p. administration; type: in vivo, SCID/beige mice; settings: clofarabine 30 mg/kg, cladribine 20 mg/kg; for event-free survival: i.p. once daily 14 days, vs vehicle; for tumor growth: i.p.
Method: The antitumor activity of drugs through intraperitoneal (i.p.) administration given once daily was determined. […] The in vivo potencies of drug treatments were evaluated by event-free survival curves, where tumors that reached 1.0 cm^3 in size considered an event.

| SMILES | IC50 (ES cell lines) [nM] | IC50 concentrations, ES cell lines (ES cell lines) | increased sensitivity of ES compared to non-ES cell lines (ES cell lines) [fold] | IC50 (U-2-OS OS cells) [nM] | IC50 [1] [nM] | IC50 (non-ES cell lines) [nM] | IC50 (TC-71 ES cells; TC-71 (ES), Table 1) [nM] | Fold changes in IC50 (TC-71 ES cells) | IC50 [2] [nM] | IC50 (6647 ES cells) [nM] | IC50 (IOR/OS14 OS cells) [nM] | IC50 (RDES ES cells) [nM] | number of migrated cells (6647 and TC-71 ES cells) | formation of CD99 homodimers [3] | Kd [4] [nM] | IC50 (SK-N-MC ES cells) [nM] | event-free survival (TC-71 xenografts) | tumor growth (TC-71 xenografts) | also measured |
| --- | --- | --- | --- | --- | --- | --- | --- | --- | --- | --- | --- | --- | --- | --- | --- | --- | --- | --- | --- |
| Nc1nc(Cl)nc2c1ncn2[C@H]1C[C@H](O)[C@@H](CO)O1 [cladribine] | 1090 ± 1850 | submicromolar | 18 | > 30000 | > 30000 | ≥ 20000 | 500 | 1.02 ± 0.27 (n = 5) | 3670 | 710 | > 30000 | 660 | significantly decreased | significantly reduced | 3800 ± 3300 | 680 | significantly different | grew slower | total body weight (mouse, in vivo): does not change |
| Nc1nc(Cl)nc2c1ncn2[C@@H]1O[C@H](CO)[C@@H](O)[C@@H]1F [clofarabine] | 440 ± 440 | submicromolar | 31 | > 30000 | > 10000 | ≥ 13700 | 150 | 1.10 ± 0.38 (n = 8) | 970 | 340 | > 10000 | 490 | significantly decreased | blocked | 5300 ± 3200 | 170 | not statistically significant | significant inhibition of tumor growth | tolerability (TC-71 and SKES xenograft models, clofarabine 30 mg/kg in TC-71): early deaths; total body weight (weighed daily during treatment): does not change; IC50 (TC-71 ES cells; TC-71 cells, WST-1, 48 h (FIG. 10B)): 150 nM; event-free survival (TC-71 xenografts; listed as Clofarabine): significantly improved |
